From the NIST ThermoML archive (doi:10.1016/j.tca.2017.04.014)

Test: xn = mol fraction of the nth substance listed
Conditions: 298.15 K, 101.3 kPa, Crystal

[O-2].[O-2].[Th+4] [thorium dioxide] + [O-2].[O-2].[U+4]
mass density [kg/m3]
Conditions	x1 = 0.3	x1 = 0.5	x1 = 0.6	x1 = 0.7	x1 = 0.8	x1 = 0.9	x1 = 1
From pellet mass and volume	8570	8600	8410	9020	9240	8800	9390
X-ray diffraction	10810	10810	10640	10480	10350	10170	10000
buoyancy	8960	8780	8690	9290	9590	9210	9430
